From the NIST ThermoML archive (doi:10.1021/je900359y)
± gives the expanded uncertainty stated by the source.

Test: mn = molality of the nth substance listed, in mol/kg
Conditions: Liquid, Constant-volume piezometry

[Br-].[NH4+] [ammonium bromide] + N
mass density [kg/m3]
Conditions | 303.15 K | 313.15 K | 323.15 K | 333.15 K | 343.15 K | 353.15 K | 363.15 K | 373.15 K
10000 kPa, m1 = 1.143 | 675.9 ± 2.7 | 661.3 ± 2.6 | 646.8 ± 2.6 | 630.2 ± 2.5 | 612.8 ± 2.5 | 594.5 ± 2.4 | 576 ± 2.3 | –
10000 kPa, m1 = 2.601 | 750.8 ± 3 | 737.8 ± 3 | 724.3 ± 2.9 | 709.5 ± 2.8 | 693.7 ± 2.8 | 676.6 ± 2.7 | 659.3 ± 2.6 | –
10000 kPa, m1 = 4.381 | 829 ± 3.3 | 817.3 ± 3.3 | 805 ± 3.2 | 791.1 ± 3.2 | 778.3 ± 3.1 | 765.5 ± 3.1 | 748.7 ± 3 | 737.7 ± 3
10000 kPa, m1 = 7.359 | 939.1 ± 3.8 | 926.8 ± 3.7 | 914.3 ± 3.7 | 903.1 ± 3.6 | 891.2 ± 3.6 | 878.6 ± 3.5 | 866.4 ± 3.5 | 854.6 ± 3.4
10000 kPa, m1 = 10.35 | 1028.9 ± 4.1 | 1017 ± 4.1 | 1005.2 ± 4 | 994.4 ± 4 | 983.9 ± 3.9 | 973 ± 3.9 | 961.1 ± 3.9 | 950.1 ± 3.8
10000 kPa, m1 = 15.17 | 1126.2 ± 4.5 | 1116.9 ± 4.5 | 1105.9 ± 4.4 | 1096 ± 4.4 | 1086.6 ± 4.4 | – | 1067.8 ± 4.3 | 1057.7 ± 4.3
15000 kPa, m1 = 1.143 | 679.5 ± 2.7 | 665.1 ± 2.7 | 651.2 ± 2.6 | 635.4 ± 2.5 | 618.5 ± 2.5 | 601.3 ± 2.4 | 583.7 ± 2.3 | 569.5 ± 2.3
15000 kPa, m1 = 2.601 | 754.5 ± 3 | 741.4 ± 3 | 727.7 ± 2.9 | 714 ± 2.9 | 698.1 ± 2.8 | 681.9 ± 2.7 | 665.4 ± 2.7 | 652.4 ± 2.6
15000 kPa, m1 = 4.381 | 832.7 ± 3.3 | 820.9 ± 3.3 | 808.9 ± 3.2 | 795.1 ± 3.2 | 782.6 ± 3.1 | 769.6 ± 3.1 | 754.3 ± 3 | 742.9 ± 3
15000 kPa, m1 = 7.359 | 942.7 ± 3.8 | 929.8 ± 3.7 | 917.4 ± 3.7 | 906.7 ± 3.6 | 894.7 ± 3.6 | 882.5 ± 3.5 | 870.2 ± 3.5 | 858.5 ± 3.5
15000 kPa, m1 = 10.35 | 1032.2 ± 4.1 | 1020.3 ± 4.1 | 1008.3 ± 4 | 997.8 ± 4 | 987.4 ± 4 | 976.5 ± 3.9 | 965.6 ± 3.9 | 954.3 ± 3.8
15000 kPa, m1 = 15.17 | 1128.1 ± 4.5 | 1118.8 ± 4.5 | 1107.8 ± 4.4 | 1098.2 ± 4.4 | 1089.1 ± 4.4 | – | 1070.1 ± 4.3 | 1060.3 ± 4.3
20000 kPa, m1 = 1.143 | 682.7 ± 2.7 | 668.9 ± 2.7 | 655.4 ± 2.6 | 640.3 ± 2.6 | 624.1 ± 2.5 | 607.9 ± 2.4 | 590.9 ± 2.4 | 577.4 ± 2.3
20000 kPa, m1 = 2.601 | 758 ± 3 | 745 ± 3 | 731.4 ± 2.9 | 718.3 ± 2.9 | 702.6 ± 2.8 | 687.1 ± 2.8 | 671.2 ± 2.7 | 658.4 ± 2.6
20000 kPa, m1 = 4.381 | 836.1 ± 3.4 | 824.2 ± 3.3 | 812.6 ± 3.3 | 799.1 ± 3.2 | 786.7 ± 3.2 | 773.8 ± 3.1 | 759.5 ± 3.1 | 748 ± 3
20000 kPa, m1 = 7.359 | 945.8 ± 3.8 | 932.8 ± 3.7 | 920.3 ± 3.7 | 909.8 ± 3.7 | 898.2 ± 3.6 | 886.2 ± 3.6 | 873.8 ± 3.5 | 862.2 ± 3.5
20000 kPa, m1 = 10.35 | 1034.9 ± 4.2 | 1023.2 ± 4.1 | 1011.2 ± 4.1 | 1001.2 ± 4 | 991.3 ± 4 | 979.8 ± 3.9 | 969 ± 3.9 | 958 ± 3.9
20000 kPa, m1 = 15.17 | 1130.1 ± 4.5 | 1120.4 ± 4.5 | 1109.7 ± 4.5 | 1100.3 ± 4.4 | 1091.2 ± 4.4 | – | 1072.4 ± 4.3 | 1062.6 ± 4.3
25000 kPa, m1 = 1.143 | 686.3 ± 2.8 | 672.6 ± 2.7 | 659.7 ± 2.6 | 645.1 ± 2.6 | 629.9 ± 2.5 | 614.6 ± 2.5 | 598.2 ± 2.4 | 585.2 ± 2.3
25000 kPa, m1 = 2.601 | 761.3 ± 3.1 | 748.6 ± 3 | 734.9 ± 2.9 | 722.5 ± 2.9 | 707.2 ± 2.8 | 692 ± 2.8 | 677.1 ± 2.7 | 664.3 ± 2.7
25000 kPa, m1 = 4.381 | 839.1 ± 3.4 | 827.6 ± 3.3 | 816.1 ± 3.3 | 803 ± 3.2 | 790.7 ± 3.2 | 778.1 ± 3.1 | 764.4 ± 3.1 | 752.9 ± 3
25000 kPa, m1 = 7.359 | 948.9 ± 3.8 | 935.5 ± 3.8 | 923 ± 3.7 | 912.7 ± 3.7 | 901.6 ± 3.6 | 889.7 ± 3.6 | 877.4 ± 3.5 | 865.9 ± 3.5
25000 kPa, m1 = 10.35 | 1037.4 ± 4.2 | 1025.9 ± 4.1 | 1014.1 ± 4.1 | 1004 ± 4 | 993.6 ± 4 | 983 ± 4 | 972.5 ± 3.9 | 961.3 ± 3.9
25000 kPa, m1 = 15.17 | 1132 ± 4.5 | 1122 ± 4.5 | 1111.5 ± 4.5 | 1102.2 ± 4.4 | 1093.3 ± 4.4 | – | 1074.8 ± 4.3 | 1065.1 ± 4.3
30000 kPa, m1 = 1.143 | 689.5 ± 2.8 | 676.3 ± 2.7 | 663.8 ± 2.7 | 649.5 ± 2.6 | 635.4 ± 2.6 | 621.2 ± 2.5 | 605.2 ± 2.4 | 592.7 ± 2.4
30000 kPa, m1 = 2.601 | 764.4 ± 3.1 | 752.1 ± 3 | 738.7 ± 3 | 726.3 ± 2.9 | 711.7 ± 2.9 | 697 ± 2.8 | 682.6 ± 2.7 | 670 ± 2.7
30000 kPa, m1 = 4.381 | 842.1 ± 3.4 | 830.7 ± 3.3 | 819.4 ± 3.3 | 807.1 ± 3.2 | 794.2 ± 3.2 | 782.2 ± 3.1 | 769 ± 3.1 | 757.6 ± 3
30000 kPa, m1 = 7.359 | 951.2 ± 3.8 | 938 ± 3.8 | 926 ± 3.7 | 915.6 ± 3.7 | 904.9 ± 3.6 | 893.2 ± 3.6 | 881.3 ± 3.5 | 870 ± 3.5
30000 kPa, m1 = 10.35 | 1039.8 ± 4.2 | 1028.6 ± 4.1 | 1016.7 ± 4.1 | 1006.9 ± 4 | 995.8 ± 4 | 986.6 ± 4 | 975.7 ± 3.9 | 964.7 ± 3.9
30000 kPa, m1 = 15.17 | 1134 ± 4.6 | 1123.6 ± 4.5 | 1113.4 ± 4.5 | 1104 ± 4.4 | 1095.4 ± 4.4 | – | 1076.8 ± 4.3 | 1067.1 ± 4.3
